Experimental data taken from patent US20220363689A1, “INHIBITOR OF BTK AND MUTANTS THEREOF” (Newave Pharmaceutical Inc., priority 2019, published 2022).

Assays:
[1] = target: WT BTK (Homo sapiens, UniProt Q06187); experiment: In vitro dialysis assay (irreversibility assay), WT BTK; assay type: biochemical; details: reversible or irreversible/covalent inhibition after 24 h dialysis
Outline: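 Compound-BTK complex was dialyzed 24 hr against […] (cumulative factor >160,000×). Residual activity was then […] and 1 mM substrate peptide and compared with non-dialyzed samples. Buffer: 100 mM HEPES pH 7.5, 5 mM MgCl2, 1 mM DTT, BSA, Triton X-100.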

[2] = target: C4815S BTK enzyme (Homo sapiens, UniProt Q06187, C481S); experiment: Reversibility of binding to C481S BTK enzyme; assay type: biochemical; details: Cysteine residue not available for covalent binding
C4815S BTK enzyme, sequence (Q06187 whole entry C481S): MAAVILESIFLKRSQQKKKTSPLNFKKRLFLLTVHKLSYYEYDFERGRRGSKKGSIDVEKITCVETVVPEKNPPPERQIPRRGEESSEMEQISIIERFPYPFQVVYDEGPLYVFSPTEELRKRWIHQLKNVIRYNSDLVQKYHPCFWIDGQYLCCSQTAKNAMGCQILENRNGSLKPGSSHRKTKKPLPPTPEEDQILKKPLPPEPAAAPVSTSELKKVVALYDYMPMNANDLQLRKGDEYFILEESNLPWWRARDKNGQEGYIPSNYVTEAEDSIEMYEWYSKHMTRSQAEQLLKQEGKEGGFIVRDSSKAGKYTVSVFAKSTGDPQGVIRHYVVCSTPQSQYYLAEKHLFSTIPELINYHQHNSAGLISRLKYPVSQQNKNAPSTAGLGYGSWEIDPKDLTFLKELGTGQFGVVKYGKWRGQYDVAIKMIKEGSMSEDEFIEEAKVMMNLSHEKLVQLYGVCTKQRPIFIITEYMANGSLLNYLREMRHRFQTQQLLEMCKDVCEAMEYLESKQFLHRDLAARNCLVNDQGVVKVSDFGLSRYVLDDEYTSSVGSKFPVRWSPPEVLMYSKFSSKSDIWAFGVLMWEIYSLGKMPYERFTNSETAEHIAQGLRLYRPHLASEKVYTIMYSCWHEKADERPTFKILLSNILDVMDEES

WT BTK, sequence (Q06187 whole entry): as the sequence (Q06187 whole entry C481S) above, with S481C counted along it

Conclusion (WT BTK) [1]: irreversible/covalent inhibition
Mode of binding to C481S BTK [2]: reversibly bind
SMILES: C=CC(=O)Nc1cc(Nc2nc(-c3ccnc(N4CCn5c(cc6c5CC(C)(C)C6)C4=O)c3CO)cn(C)c2=O)ccc1N1CCN(C)CC1 [Example 2, N-(5-((6-(2-(7,7-dimethyl-1-oxo-1,3,4,6,7,8-hexahydro-2H-cyclopenta[4,5]pyrrolo[1,2-a]pyrazin-2-yl)-3-(hydroxymethyl)pyridin-4-yl)-4-methyl-3-oxo-3,4-dihydropyrazin-2-yl)amino)-2-(4-methylpiperazin-1-yl)phenyl)acrylamide]
